Measurements from PMC7118210 (Frontiers in Pharmacology, 2020).

What was measured:
[1] = Metabolites in human liver microsomes (systems I-human, II-human); format: in vitro ADME
Protocol: Then, NADPH-B (10 μl) was added and the mixed solution incubated for 2 h. […] Next, UDPGA (50 μl) was added and the mixed solution incubated for 2 h. In addition, the naringenin solution (1 mM, 10 μl) was evaluated in human systems I and II as above.
(§1) The incubated solution (500 μl) of systems I-rat, II-rat, III-rat, I-human, and II-human were extracted with ethyl acetate (500 μl) for at least 3 min by vortexing and centrifuged for 10 min at 13,000 rpm and 4°C. The extraction process described above was performed twice and all supernatants were transferred into centrifuge tubes, dried with N2, and dissolved with methanol-water (1:1, v/v). All samples were injected into a UPLC/Q-TOF-MS system consisting of a Waters Acquity ultra performance liquid chromatography (UPLC) coupled with a Micromass micro™ quadrupole time-of-flight mass spectrometry (Q-TOF-MS) system (Waters Corp., Milford, MA, USA), equipped with an electrospray ionization source, and controlled by the MassLynx (v. 4.1) software. Separation was performed on a Waters Acquity UPLC BEH C18 column (50 mm × 2.1 mm, 1.7 μm) at 40°C. The mobile phase consisted of 0.1% formic acid (v/v) in water (A) and methanol (B) using a linear gradient of 95% to 60% A (0–25 min), 60% to 40% A (25–35 min), 40% to 10% A (35–40 min), 10% A (40–43 min), 10% to 95% A (43–44 min), and 95% A (44–45 min). The injection volume was 5 μl with flow rate of 0.2 ml min^-1. The Q-TOF-MS worked in a full scan mode (100–1,200 m/z), selection ion mode, and product ion mode, in negative ion mode, respectively. The conditions were as follows: capillary voltage 3,000 V, sample cone voltage 30 V, extraction cone voltage 2.0 V, source temperature 100°C, desolvation temperature 350°C, cone gas (N2) flow rate of 40 L/h, desolvation gas (N2) flow rate of 700 L/h, low collision energy 6.0 eV, and high collision energy 20–80 eV. Compounds were detected with accurate mass using leucine enkephalin for mass correction at 554.2615 (m/z) in negative ionization mode.

[2] = Metabolites in rat liver microsomes (systems I-rat, II-rat); format: in vitro ADME, Sprague-Dawley rat
Protocol: Then, NADPH-B (10 μl) was added and incubated for 2 h. […] Then, UDPGA (50 μl) was added and incubated for 2 h. […] Then, UDPGA (50 μl) was added and incubated for 2 h. In addition, the naringenin solution (1 mM, 10 μl) was evaluated in rat systems I, II, and III as above.
as §1

[3] = Multiple-dose pharmacokinetics in healthy humans; format: in vivo, human
Protocol: Naringin and placebo tablets were identical in appearance and participants, care providers, and those assessing outcomes were blinded to the study drug assignment. Using the Statistical Analysis System (SAS) software (Version 9.4, SAS Institute Inc., Cary, NC, USA), subject randomization and blinding/masking were performed by statisticians from the Department of Health Statistics at the Second Military Medical University. […] Human urine samples were collected at −12~0, 0~4, 4~8, 8~12, 12~24, 24~36, 36~48, 48~60, and 60~72 h for the single-dose groups and −12~0 (Day1), −12~0 (Day7), 0~4, 4~8, 8~12, 12~24, 24~36, 36~48, 48~60, and 60~72 h (Day7) for the multiple-dose group with records of volume. Human feces were collected in storage boxes, weighed, and recorded from 12 h before administration to 72 h postadministration. […] The optimal volume and activity in unit volume of enzyme solution [0.2 M acetic acid/water solution: 0.2 M ammonium acetate/water solution, 15:35 (v/v)] were determined through a pretest of the enzyme (rat plasma, 10 μl, 10 U μl^-1; dog plasma, 10 μl, 10 U μl^-1; human plasma, 20 μl, 20 U μl^-1; human urine, 10 μl, 10 U μl^-1). After enzyme incubation, 10 μl of IS solution was added to the plasma and urine samples (2 μg ml^-1 quercetin 3-β-D-glucoside for rat and dog plasma; 583 ng ml^-1 naringin-D4 and 160 ng ml^-1 naringenin-D4 for human plasma; and 9,710 ng ml^-1 naringin-D4 and 6,000 ng ml^-1 naringenin-D4 for human urine). To each fecal sample, 9-fold methanol-normal saline (2:1, v/v) was added, mixed (18,000 rpm, 15 min) by vortexing and centrifuged (10 min, 9,000 rpm, 4°C). Next, 10 μl IS solution (971 ng ml^-1 naringin-D4 and 600 ng ml^-1 naringenin-D4) was added to the supernatants of feces (200 μl) without enzyme incubation. […] The solid material was dissolved with acetonitrile-water (1:1, v/v) and injected into the ultra high-performance liquid chromatography coupled with triple quadrupole mass spectrometry (UHPLC/MS/MS) system as described below. The analysis of nonclinical and clinical samples was performed with a UHPLC/MS/MS system that consisted of a Shimadzu Nexera X2 ultra high-performance liquid chromatography (UHPLC) (Shimadzu Corp., Kyoto, Japan) coupled with an AB Sciex API4000 triple-quadrupole mass spectrometry (MS/MS) system (AB Sciex, Foster City, CA, USA) equipped with an electrospray ionization source and controlled by Analyst (v. 1.6.2) software. […] The injection volume was 10 μl with the flow rate of 0.3 ml min^-1 for plasma, and 0.4 ml min^-1 for urine and feces. The compounds were detected by multiple reaction monitoring in the negative ion electrospray mode. The electrospray source conditions were as follows: ion source gas1 30 psi, ion source gas2 60 psi, curtain gas 20 psi, collisionally activated dissociation (CAD) gas 8 psi, temperature 500°C, and ion spray voltage −4,500 V. Zero air was used for ion source gas1 and ion source gas2 and nitrogen for curtain gas and CAD gas. […] All pharmacokinetic and excretion parameters were expressed as mean ± standard deviation (SD). All mean and SD values were reported to three significant figures. The pharmacokinetic parameters were calculated using the Phoenix WinNonlin software (Version 6.4, Pharsight Corp., Cary, NC, USA) and compared using the Student's t-test (p < 0.05) in SPSS 18.0 (SPSS Inc., Chicago, IL, USA). […] For the multiple-dose studies, pharmacokinetic parameters included the mean plasma level at steady state, Tmax, t1/2, the percent fluctuation, and the accumulation index (Table 3). […] In addition, we compared the pharmacokinetic parameters obtained from males and females (Tables 4–6).

[4] = naringin 160 mg multiple dose, human, female
[5] = naringin 160 mg multiple dose, human, male
[6] = naringin 160 mg p.o. three times a day, multiple dose, human

Structure (SMILES)	found in human liver microsomes, incubation of naringenin (S) [1]	found in rat liver microsomes, incubation of naringenin (S) [2]	accumulation in multiple-dose study ([3]; in vivo)	CavSS [3, 4] [µg/mL]	CavSS [3, 5] [µg/mL]	CavSS [3, 6] [µg/mL]	Tmax [3, 6] [h]	accumulation in multiple-dose study ([3]; humans)	Fluctuation [3, 4] [%]	Fluctuation [3, 5] [%]	Fluctuation ([3]; naringin 160 mg p.o. three times a day, multiple dose, human, (CmaxSS−CminSS)/CavSS×100%) [%]
O=C1C[C@@H](c2ccc(O)cc2)Oc2cc(O)cc(O)c21 [naringenin, Naringenin]	+	+	no significant accumulation	0.0226 ± 0.00842	0.0472 ± 0.047	0.039 ± 0.0387	5.83 ± 1.17				
C[C@@H]1O[C@@H](O[C@H]2[C@H](Oc3cc(O)c4c(c3)O[C@H](c3ccc(O)cc3)CC4=O)O[C@H](CO)[C@@H](O)[C@@H]2O)[C@H](O)[C@H](O)[C@H]1O [naringin, Naringin]				0.00174 ± 0.000377	0.00175 ± 0.000403	0.00175 ± 0.000365		no significant accumulation	149 ± 37.5	210 ± 79.6	187 ± 70.7
